Test results: US20210070748A1, “INHIBITORS OF BRUTONS TYROSINE KINASE” (Pharmacyclics LLC, priority 2015, published 2021)
Where two headings read alike, the source gives them in different places.

Columns and labels:
Type in all cases: biochemical
SRC = SRC (Homo sapiens, UniProt P12931); experiment: Inhibition of a panel of kinases, in vitro HotSpot kinase assay: SRC
Protocol: (§1) The degree of inhibition of a panel of kinases is determined using the in vitro HotSpot kinase assay (purified enzymes, ^33P-ATP, an appropriate substrate and 1 μM ATP).

JAK3 = target: T1, JAK3 (Homo sapiens, UniProt P52333); experiment: Inhibition of a panel of kinases, in vitro HotSpot kinase assay: JAK3; conditions: read-out: IC50 JAK3
T1 sequence (P52333 1-1124): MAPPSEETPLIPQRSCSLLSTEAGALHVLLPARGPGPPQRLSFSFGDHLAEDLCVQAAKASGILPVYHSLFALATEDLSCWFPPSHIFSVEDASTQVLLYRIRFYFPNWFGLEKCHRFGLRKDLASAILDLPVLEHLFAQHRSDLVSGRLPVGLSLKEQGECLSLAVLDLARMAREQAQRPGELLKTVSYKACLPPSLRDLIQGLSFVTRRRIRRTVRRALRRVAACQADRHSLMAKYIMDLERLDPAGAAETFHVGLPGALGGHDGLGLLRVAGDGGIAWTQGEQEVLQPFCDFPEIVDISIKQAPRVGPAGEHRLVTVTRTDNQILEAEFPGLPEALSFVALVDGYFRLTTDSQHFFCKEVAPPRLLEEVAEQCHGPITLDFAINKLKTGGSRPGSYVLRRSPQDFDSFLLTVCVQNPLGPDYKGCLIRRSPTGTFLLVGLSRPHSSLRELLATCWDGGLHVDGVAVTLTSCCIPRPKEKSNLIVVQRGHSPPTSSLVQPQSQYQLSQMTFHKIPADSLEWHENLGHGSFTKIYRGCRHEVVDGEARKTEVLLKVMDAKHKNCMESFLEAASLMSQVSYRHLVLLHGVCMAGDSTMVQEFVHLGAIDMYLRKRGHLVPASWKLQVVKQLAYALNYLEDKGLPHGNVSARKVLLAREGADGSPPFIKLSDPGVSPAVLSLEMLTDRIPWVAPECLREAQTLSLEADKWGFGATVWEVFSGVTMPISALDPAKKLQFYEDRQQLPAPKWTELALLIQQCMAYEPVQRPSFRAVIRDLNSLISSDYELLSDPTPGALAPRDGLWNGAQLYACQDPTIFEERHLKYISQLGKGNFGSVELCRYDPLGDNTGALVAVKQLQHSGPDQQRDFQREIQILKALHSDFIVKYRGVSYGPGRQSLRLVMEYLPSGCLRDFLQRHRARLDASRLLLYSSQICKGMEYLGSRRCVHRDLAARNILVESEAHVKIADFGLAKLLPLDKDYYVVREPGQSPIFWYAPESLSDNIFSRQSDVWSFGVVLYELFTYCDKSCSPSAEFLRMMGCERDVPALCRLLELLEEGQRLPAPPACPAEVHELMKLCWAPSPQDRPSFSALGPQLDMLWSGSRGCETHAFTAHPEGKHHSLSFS

ITK = target: T2, ITK (Homo sapiens, UniProt Q08881); experiment: Inhibition of a panel of kinases, in vitro HotSpot kinase assay: ITK
T2 sequence (Q08881 1-620): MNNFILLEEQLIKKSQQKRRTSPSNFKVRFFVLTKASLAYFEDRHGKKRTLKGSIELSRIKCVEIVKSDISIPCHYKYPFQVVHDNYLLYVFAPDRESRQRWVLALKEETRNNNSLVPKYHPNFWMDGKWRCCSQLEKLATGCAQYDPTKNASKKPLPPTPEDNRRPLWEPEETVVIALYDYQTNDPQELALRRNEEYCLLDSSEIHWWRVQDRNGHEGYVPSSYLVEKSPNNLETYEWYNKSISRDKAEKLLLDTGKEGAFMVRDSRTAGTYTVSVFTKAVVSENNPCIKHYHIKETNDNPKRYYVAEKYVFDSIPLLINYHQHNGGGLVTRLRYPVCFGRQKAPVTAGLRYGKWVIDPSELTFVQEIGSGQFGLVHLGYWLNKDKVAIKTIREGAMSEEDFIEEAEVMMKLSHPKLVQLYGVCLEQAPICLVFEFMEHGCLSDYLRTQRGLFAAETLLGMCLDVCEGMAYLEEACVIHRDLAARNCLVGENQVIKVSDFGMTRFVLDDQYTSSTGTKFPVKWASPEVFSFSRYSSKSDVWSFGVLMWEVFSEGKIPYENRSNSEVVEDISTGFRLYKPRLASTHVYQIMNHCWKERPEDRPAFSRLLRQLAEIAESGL
Protocol: as §1

LCK = LCK (Homo sapiens, UniProt P06239); experiment: Inhibition of a panel of kinases, in vitro HotSpot kinase assay: LCK; conditions: read-out: IC50 LCK
EGFR = EGFR (Homo sapiens, UniProt P00533); experiment: Inhibition of a panel of kinases, in vitro HotSpot kinase assay: EGFR
Protocol: as §1

TEC = target: T3, TEC (Homo sapiens, UniProt P42680); experiment: Inhibition of a panel of kinases, in vitro HotSpot kinase assay: TEC
T3 sequence (P42680 1-631): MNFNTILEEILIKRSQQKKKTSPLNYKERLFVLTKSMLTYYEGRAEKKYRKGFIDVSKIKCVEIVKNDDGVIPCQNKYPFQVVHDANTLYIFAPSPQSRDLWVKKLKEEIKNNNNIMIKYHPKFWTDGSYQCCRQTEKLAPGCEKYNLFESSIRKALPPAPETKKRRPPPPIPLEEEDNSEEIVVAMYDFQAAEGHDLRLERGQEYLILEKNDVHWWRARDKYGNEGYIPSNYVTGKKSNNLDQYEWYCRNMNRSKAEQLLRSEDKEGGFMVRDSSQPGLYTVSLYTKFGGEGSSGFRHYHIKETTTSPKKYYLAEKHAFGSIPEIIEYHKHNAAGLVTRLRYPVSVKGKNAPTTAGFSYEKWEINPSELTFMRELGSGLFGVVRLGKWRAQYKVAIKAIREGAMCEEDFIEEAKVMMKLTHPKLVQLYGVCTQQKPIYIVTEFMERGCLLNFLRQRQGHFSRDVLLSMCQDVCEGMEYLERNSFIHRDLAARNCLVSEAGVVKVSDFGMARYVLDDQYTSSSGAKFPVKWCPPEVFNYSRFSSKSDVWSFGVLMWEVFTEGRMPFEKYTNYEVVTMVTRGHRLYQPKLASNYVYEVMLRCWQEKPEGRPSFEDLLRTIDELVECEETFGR
Protocol: as §1

[1] = Table 13, A compounds, 1 μM ATP

Chain of EGFR (P00533 25-1210): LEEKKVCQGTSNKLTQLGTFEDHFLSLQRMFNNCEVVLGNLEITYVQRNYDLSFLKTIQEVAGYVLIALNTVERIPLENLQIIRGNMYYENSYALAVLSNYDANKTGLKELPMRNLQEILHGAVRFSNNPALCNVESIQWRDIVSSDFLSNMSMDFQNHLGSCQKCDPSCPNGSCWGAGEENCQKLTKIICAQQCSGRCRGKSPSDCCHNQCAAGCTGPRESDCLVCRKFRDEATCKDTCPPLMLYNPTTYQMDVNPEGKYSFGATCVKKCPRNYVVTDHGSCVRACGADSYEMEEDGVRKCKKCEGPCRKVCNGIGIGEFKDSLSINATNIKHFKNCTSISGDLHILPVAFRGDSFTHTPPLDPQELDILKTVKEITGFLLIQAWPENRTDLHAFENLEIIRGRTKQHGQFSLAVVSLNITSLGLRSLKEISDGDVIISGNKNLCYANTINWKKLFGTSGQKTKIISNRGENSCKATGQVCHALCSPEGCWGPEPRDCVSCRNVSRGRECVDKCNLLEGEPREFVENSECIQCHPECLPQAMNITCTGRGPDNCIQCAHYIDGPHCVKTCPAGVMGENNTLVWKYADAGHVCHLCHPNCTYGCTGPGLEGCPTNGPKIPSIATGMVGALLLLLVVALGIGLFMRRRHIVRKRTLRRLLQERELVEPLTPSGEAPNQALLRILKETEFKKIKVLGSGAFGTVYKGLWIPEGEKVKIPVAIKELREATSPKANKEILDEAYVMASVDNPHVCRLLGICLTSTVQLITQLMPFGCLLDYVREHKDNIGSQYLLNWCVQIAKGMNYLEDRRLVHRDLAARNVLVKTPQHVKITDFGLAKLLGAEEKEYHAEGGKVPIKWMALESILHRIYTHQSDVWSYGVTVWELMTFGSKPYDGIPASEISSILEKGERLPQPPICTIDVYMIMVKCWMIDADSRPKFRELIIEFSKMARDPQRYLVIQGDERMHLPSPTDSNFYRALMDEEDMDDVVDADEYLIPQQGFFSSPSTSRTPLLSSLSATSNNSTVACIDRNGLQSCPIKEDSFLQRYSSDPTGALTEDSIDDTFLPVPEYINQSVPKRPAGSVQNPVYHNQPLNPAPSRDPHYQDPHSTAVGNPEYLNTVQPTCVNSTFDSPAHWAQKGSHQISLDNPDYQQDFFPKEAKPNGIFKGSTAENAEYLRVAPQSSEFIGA
Chain of SRC (P12931 whole entry): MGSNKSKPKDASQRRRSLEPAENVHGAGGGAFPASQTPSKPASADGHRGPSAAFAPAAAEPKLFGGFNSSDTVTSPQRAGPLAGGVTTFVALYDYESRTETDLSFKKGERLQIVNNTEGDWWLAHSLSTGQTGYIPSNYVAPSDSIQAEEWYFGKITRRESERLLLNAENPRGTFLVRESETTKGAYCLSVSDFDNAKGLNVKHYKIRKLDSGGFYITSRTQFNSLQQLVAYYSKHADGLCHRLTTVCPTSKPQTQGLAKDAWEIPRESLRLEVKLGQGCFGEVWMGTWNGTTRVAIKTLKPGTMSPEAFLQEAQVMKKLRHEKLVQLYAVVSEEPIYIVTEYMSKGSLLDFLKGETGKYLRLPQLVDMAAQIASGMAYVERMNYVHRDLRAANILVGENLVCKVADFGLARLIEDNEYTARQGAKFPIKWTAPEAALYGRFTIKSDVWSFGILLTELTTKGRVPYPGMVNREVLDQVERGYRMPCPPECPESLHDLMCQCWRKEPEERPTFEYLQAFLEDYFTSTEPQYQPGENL
Chain of LCK (P06239 whole entry): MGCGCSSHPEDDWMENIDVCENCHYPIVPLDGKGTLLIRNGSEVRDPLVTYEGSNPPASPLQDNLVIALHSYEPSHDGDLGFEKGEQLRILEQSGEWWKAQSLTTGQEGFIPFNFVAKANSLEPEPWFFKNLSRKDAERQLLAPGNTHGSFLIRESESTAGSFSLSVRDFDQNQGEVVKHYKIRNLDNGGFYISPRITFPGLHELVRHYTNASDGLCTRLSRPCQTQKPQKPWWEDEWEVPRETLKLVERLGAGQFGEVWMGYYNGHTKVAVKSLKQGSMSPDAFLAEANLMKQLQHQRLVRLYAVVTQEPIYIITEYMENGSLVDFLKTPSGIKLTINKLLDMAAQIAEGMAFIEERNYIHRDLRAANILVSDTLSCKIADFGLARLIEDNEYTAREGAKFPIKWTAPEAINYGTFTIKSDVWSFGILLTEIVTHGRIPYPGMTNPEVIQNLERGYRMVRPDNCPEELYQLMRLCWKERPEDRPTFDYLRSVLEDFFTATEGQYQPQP

Structure (SMILES)	IC50 (SRC; E compounds, Table 17) [nM]	IC50 (JAK3; E compounds, Table 17) [nM]	IC50 (ITK; E compounds, Table 17) [nM]	IC50 (LCK; E compounds, Table 17) [nM]	IC50 (EGFR; E compounds, Table 17) [nM]	IC50 (TEC; E compounds, Table 17) [nM]	IC50 (SRC; [1]) [nM]	IC50 (JAK3; [1]) [nM]	IC50 (ITK; [1]) [nM]	IC50 (LCK; [1]) [nM]	IC50 (EGFR; [1]) [nM]	IC50 (TEC; [1]) [nM]
Cn1cc(Nc2nc(N3CCC4CCN(C(=O)c5ccc(C6CC6)cc5)C4C3)cnc2C(N)=O)cn1 (centres unmarked) [Example E-141, 5-(1-(4-cyclopropylbenzoyl)octahydro-6H-pyrrolo[2,3-c]pyridin-6-yl)-3-((1-methyl-3H-pyrazol-4-yl)amino)pyrazine-2-carboxamide]	100 to 1000	1000 to 10000	1000 to 10000	100 to 1000	100 to 1000	100 to 1000						
C[C@@H]1[C@H](NC(=O)c2ccc(C3CC3)cc2)CCCN1c1cnc(C(N)=O)c(Nc2cnc(C3CCOCC3)nc2)n1 [Example E-144, 5-((2R,3R)-3-(4-cyclopropylbenzamido)-2-methylpiperidin-1-yl)-3-((2-(tetrahydro-2H-pyran-4-yl)pyrimidin-5-yl)amino)pyrazine-2-carboxamide]	100 to 1000	> 10000	100 to 1000	100 to 1000	> 10000	100 to 1000						
C[C@@H]1[C@H](NC(=O)c2ccc(C3CC3)cc2F)CCCN1c1cnc(C(N)=O)c(Nc2ccc(N3CCN(C)CC3)nc2)n1 [Example A-177, 5-[(2R,3R)-3-(4-cyclopropyl-2-fluorobenzamido)-2-methylpiperidin-1-yl]-3-{[6-(4-methylpiperazin-1-yl)pyridin-3-yl]amino}pyrazine-2-caoxamide]							100 to 1000	1000 to 10000	1000 to 10000	100 to 1000	1000 to 10000	100 to 1000
C[C@@H]1[C@H](NC(=O)c2ccc(C3CC3)cc2F)CCCN1c1cnc(C(N)=O)c(Nc2ccc(C3(C)CCN(C4CC4)CC3)cc2)n1 [Example A-174, 5-[(2R,3R)-3-(4-cyclopropyl-2-fluorobenzamido)-2-methylpiperidin-1-yl]-3-{[4-(1-cyclopropyl-4-methylpiperidin-4-yl)phenyl]amino}pyrazine-2-carboxamide]							100 to 1000	10 to 100	100 to 1000	10 to 100	100 to 1000	10 to 100
C=CC(=O)N1CCC[C@@H](Nc2nnc(C(N)=O)c(Nc3ccc(C4CCN(C(=O)CC)CC4)cc3)n2)C1 [Example E-45, (R)-3-(1-acryloylpiperidin-3-ylamino)-5-(4-(1-propionylpiperidin-4-yl)phenylamino)-1,2,4-triazine-6-carboxamide]	10 to 100	< 10	≤ 10	10 to 100	≤ 10	≤ 10						
CC(C)N1CCN(c2ccc(Nc3nc(N4CCC[C@@H](NC(=O)c5ccc(C6CC6)cc5F)[C@H]4C)cnc3C(N)=O)cc2)CC1 [Example A-149, 5-[(2R,3R)-3-(4-cyclopropyl-2-fluorobenzamido)-2-methylpiperidin-1-yl]-3-({4-[4-(propan-2-yl)piperazin-1-yl]phenyl}amino)pyrazine-2-carboxamide]							10 to 100	1000 to 10000	10 to 100	10 to 100	100 to 1000	10 to 100
CC(C)c1ccc(Nc2nc(N3CCC[C@@H](N4CCC[C@@H](Nc5cc(Cl)cc(C(F)(F)F)c5)C4=O)C3)nnc2C(N)=O)cc1 [Example E-128, 3-((3R,3′R)-3-((3-chloro-5-(trifluoromethyl)phenyl)amino)-2-oxo-[1,3′-bipiperidin]-1′-yl)-5-((4-isopropylphenyl)amino)-1,2,4-triazine-6-carboxamide]	10 to 100	1000 to 10000	10 to 100	10 to 100		1000 to 10000						
C=CC(=O)N1CCC[C@@H](Nc2nnc(C(N)=O)c(Nc3ccc(C4(C)CCN(C5CC5)CC4)cc3)n2)[C@H]1C [Example E-127, 3-(((2R,3R)-1-acryloyl-2-methylpiperidin-3-yl)amino)-5-((4-(1-cyclopropyl-4-methylpiperidin-4-yl)phenyl)amino)-1,2,4-triazine-6-carboxamide]	≤ 10	< 10	≤ 10	< 10		≤ 10						
C=CC(=O)N1CCC[C@@H](N(C)c2cnc(C(N)=O)c(Nc3ccc(C(C)C)cc3)n2)C1 [Example E-102, (R)-5-((1-acryloylpiperidin-3-yl)(methyl)amino)-3-(4-isopropylphenylamino) pyrazine-2-carboxamide]	100 to 1000	10 to 100	10 to 100	1000 to 10000		≤ 10						
C=CC(=O)N[C@@H]1CCCN(c2nnc(C(N)=O)c(Nc3ccc(Cl)cc3)n2)[C@@H]1C [Example E-5, 3-((2R,3R)-3-acrylamido-2-methylpiperidin-1-yl)-5-((4-chlorophenyl)amino)-1,2,4-triazine-6-carboxamide]		< 10	10 to 100	< 10		≤ 10						
C=CC(=O)N[C@@H]1CCCN(c2nnc(C(N)=O)c(Nc3ccc(C4(C)CCN(C5CC5)CC4)cc3)n2)[C@@H]1C [Example E-2, 3-((2R,3R)-3-acrylamido-2-methylpiperidin-1-yl)-5-((4-(1-cyclopropyl-4-methylpiperidin-4-yl)phenyl)amino)-1,2,4-triazine-6-carboxamide]		10 to 100	10 to 100	100 to 1000		≤ 10						
C=CC(=O)N1CCC[C@@H](Nc2nnc(C(N)=O)c(Nc3ccc(C(C)(C)C)cc3)n2)C1 [Example E-24, (R)-3-(1-acryloylpiperidin-3-ylamino)-5-(4-tert-butylphenylamino)-1,2,4-triazine-6-carboxamide]		< 10	≤ 10	100 to 1000	≤ 10	≤ 10						
C=CC(=O)N1CCC[C@@H](Nc2nnc(C(N)=O)c(Nc3ccc(Cl)cc3)n2)[C@H]1C [Example E-7, 3-(((2R,3R)-1-acryloyl-2-methylpiperidin-3-yl)amino)-5-((4-chlorophenyl)amino)-1,2,4-triazine-6-carboxamide]		< 10	≤ 10	< 10		≤ 10						
